{"source": "patent US6362192B1", "about": "“2-(Pyrazolyloxy) -pyridin-3-ylacetic acid derivatives, agents containing the same and use thereof against noxious fungi and animal parasites” (BASF Aktiengesellschaft, priority 1998, dated 2002)", "assay_type_in_all_cases": "in vivo", "key": {"[1]": {"test_system": "Erysiphe graminis forma specialis tritici", "test": "Protective activity against Erysiphe graminis var. tritici (powdery mildew of wheat)", "settings": "16 ppm, sprayed 24 h before inoculation, seedlings cv. Frühgold, assessed after 7 days; untreated control 80%", "description": "1) Protective Activity Against Erysiphe graminis var. tritici (Powdery Mildew of Wheat) Leaves of potted […] seedlings cv. “Frühgold” were sprayed to runoff point with an aqueous active compound preparation which had been prepared from a stock solution comprising 10% of active compound, 63% of cyclohexanone and 27% of emulsifier, and, 24 hours after the spray coating had dried on, dusted with spores of powdery mildew of wheat (Erysiphe graminis forma specialis tritici). The test plants were subsequently placed in a greenhouse at from 20 to 22° C. and a relative atmospheric humidity of 75 to 80%. After 7 days, the extent of mildew development was determined visually as % infection of the total leaf area."}, "Plasmopara viticola": {"test_system": "Plasmopara viticola", "test": "Long-term activity against Plasmopara viticola on grapevines", "settings": "16 ppm, grapevines cv. Müller-Thurgau, inoculated 7 days after spraying; untreated control 75%", "source_text": "2) Long-term Activity Against Plasmopara viticola Leaves of potted grapevines cv. “Müller-Thurgau” were sprayed to runoff point with an aqueous active compound preparation which had been prepared from a stock solution comprising 10% of active compound, 63% of cyclohexanone and 27% of emulsifier. To assess the persistency of the substances, the plants were kept for 7 days in a greenhouse after the spray coating had dried on. Only then were the leaves inoculated with an aqueous zoospore suspension of Plasmopara viticola. The grapevines were then initially kept in a water vapor-saturated chamber at 24° C. for 48 hours and then in a greenhouse at 20-30° C. for 5 days. After this period of time, the plants were once more kept in a humid chamber for 16 hours to promote sporangiophore eruption. The extent of the infection on the undersides of the leaves was then assessed visually."}, "pyricularia oryzae": {"test_system": "pyricularia oryzae", "settings": "16 ppm, rice seedlings cv. Tai-Nong 67, inoculated the next day, assessed after 6 days; untreated control 85%"}}}
{"smiles": "CO/C=C(/C(=O)OC)c1cccnc1Oc1ccn(-c2ccc(Cl)cc2)n1", "note": "[I.3, Methyl methoxy-[2-(1-(4-chlorophenyl)-3-pyrazolyloxy)pyridin-3-yl]acrylate]", "values": [{"measurement": "infection (mildew development as % infection of the total leaf area)", "setting": "[1]", "value": 5, "unit": "%"}, {"measurement": "infection on the undersides of the leaves", "setting": "Plasmopara viticola", "value": "no infestation"}, {"measurement": "infestation on the leaves", "setting": "pyricularia oryzae", "value": 15, "unit": "%"}]}
